US9187458B2, “Cyanoquinoline derivatives” (Tianjin Hemay Bio-Tech Co., LTD., priority 2010, dated 2015)

Experiments:
[1] = system: BT-474 cells; assay: BT-474 Cell Growth Inhibition Test (SRB Assay); assay type: cell-based, human; settings: Homo sapiens, 70 h incubation; for inhibition at 1 µM: BT-474, 70 h, compound 1 μM, read-out: Growth Inhibition Ratio (%)
How it was run: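 Human breast tumour BT-474 cells (1×10^5/ml seeding, overnight) exposed to compound 70 h at 37 °C, 5% CO2; TCA-fixed, SRB-stained, dye dissolved in 10 mM Tris and OD read at 570 nm. Inhibition ratio = (PC−n)/(PC−NC)×100%; IC50 is the concentration giving 50% inhibition, from fitted curves.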

[2] = system: Sk-Br-3 cells; assay: Sk-Br-3 Cell Growth Inhibition Test (SRB Assay); assay type: cell-based; settings: Homo sapiens, 91 h incubation
Method: Sk-Br-3 Cell Growth Inhibition Test (SRB Assay)
1. Cell strains: Sk-Br-3 (human breast cancer cell strains);
2. SRB: available from Sigmaaldrich, goods number: S9012, lot number: 047K3751. SRB was reserved at the room temperature. 0.4% (w/v) of working solution was formulated with 1% of glacial acetic acid. The solution was reserved at 4° C.; anti-tumor compounds; DMSO
Culture medium: 90% DMEM+10% FBS;
1. A plate (10 cm) of cells in logarithmic growth phase normally cultured was collected. The culture solution was sucked out. The plate was washed with 5 mL of PBS 1-2 times;
2. PBS was sucked out. […] of 0.25% pancreatin was added to infiltrate the cells for 30 s;
3. The pancreatin was sucked out. The culture plate was placed in an incubator. Digestion was carried out for about 1.5-2 min at 37° C.;
4. 4 mL of complete culture solution was added to the culture plate to stop the digestion. The cells were carefully scoured with micropipette (1 ml) to give a uniform single cell suspension;
5. Cell suspension was counted. The suspension was diluted to 1×10^5/ml. The resulting suspension was developed uniformly on a plate by 10000 cells/100 μl per well. The culture plate was incubated overnight under 5% CO2 at 37° C. In day 2, 100 μl of culture solution comprising a compound was added in each well, and further incubated for 91 h under 5% CO2 at 37° C.
6. The culture solution was sucked out. 100 uL of TCA fixed cells which were diluted to 10% were added to each well. The plate was kept in a refrigerator for 1 h at 4° C.
7. TCA stationary liquid was sucked out. Each well was washed with 150 μL of ddH2O five times;
8. After the stationary liquid was cleansed, the plate was dried in the air at the room temperature;
9. 60 μL of SRB staining solution was added in each well. The well was stained for 15 min at the room temperature;
10. The SRB staining solution was sucked out. Each well was washed with 150 μL of 1% glacial acetic acid five times;
11. After the SRB staining solution was cleansed, the plate was dried in the air at the room temperature;
12. 100 μL of 10 mM Tris was added in each well. The plate was vibrated to dissolve out SRB;
13. OD values were determined at 570 nM.
To: OD values of the starting content of cells when the cells were developed on a plate;
PC: OD values of cells after normal growth in control wells without a compound;
Ti: OD values of cells after growth in test wells with a compound;
NC: Background OD values of blank well without a compound and cells
Therefore: Ratio of cells in test wells to normal wells (% of control cell growth)=(Ti−To)/(PC−To)×100%
Ratio GI50 was concentration of a compound at the point of 50%.
Therefore: Ratio of killed cells to inoculated cells (% of killed cells)=(Ti−To)/(To−NC)×100%
LC50 was concentration point of a compound when half of the starting inoculated concentration was reached.
Concentration of a compound at this point is defined as TGI (total growth inhibition).

[3] = system: LoVo cells; assay: LoVo Cell Growth Inhibition Test (MTT Assay); assay type: cell-based; settings: Homo sapiens, 72 h incubation
Method: LoVo Cell Growth Inhibition Test (MTT Assay)
1. Cell strains: LoVo (human intestinal cancer cell strains);
1. A plate (10 cm) of cells in logarithmic growth phase normally cultured was collected;
2. The culture solution was sucked out. The plate was washed with 5 ml of PBS 1-2 times;
3. PBS was sucked out. 2 ml of 0.25% pancreatin was added to infiltrate the cells for 1 min;
4. The pancreatin was sucked out. The culture plate was placed in an incubator. Digestion was carried out for about 4 min at 37° C.;
5. 4 ml of complete culture solution was added in the culture plate to stop the digestion. The cells were carefully scoured with micropipette (1 ml) to give a uniform cell suspension. The suspension was implanted into a 96-well cell culture plate by 3000-4000 cells/100 μl per well. The culture plate was incubated overnight under 5% CO2 at 37° C. In day 2, 100 μl of culture solution comprising a compound was added into each well, and further incubated for 72 h under 5% CO2 at 37° C.
6. The culture solution was sucked out;
7. 100 μl of serum-free culture solution containing 0.5 mg/ml MTT was added in each well, and incubated for 4 h;
8. The culture solution was carefully sucked out;
9. 100 μl of DMSO was added in each well and vibrated to dissolve;
10. OD values were determined at 490 nM.
1. Calculation of Relative Inhibition Ratio The inhibition ratio of a compound on cell growth=(PC−n)/(PC−NC)×100%
IC50: Concentration of a compound where inhibition ratio was 50%. IC50 values were fitted with Origin7.5.

[4] = system: NCI-H460 cells; assay: NCI-H460 Cell Growth Inhibition Test (MTT Assay); assay type: cell-based; settings: Homo sapiens, 72 h incubation
How it was run: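 Cells seeded at 2500 per well, left overnight, then exposed to compound for 72 h at 37 °C, 5% CO2. Viability by MTT (0.5 mg/ml, 3 h), DMSO-dissolved, OD 490 nm; inhibition ratio = (PC−n)/(PC−NC)×100%, IC50 from curve fit.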

| Compound | IC50 [1] | GI50 [2] | IC50 [3] | IC50 [4] | inhibition at 1 µM [1] |
| --- | --- | --- | --- | --- | --- |
| CC(C)(C)NC/C=C/C(=O)Nc1cc2c(Nc3ccc(OCc4ccccn4)c(Cl)c3)c(C#N)cnc2cc1O[C@H]1CCOC1 [Example 153, (S,E)-N-(4-(3-CHLORO-4-(PYRIDIN-2-YL-METHOXY)PHENYLAMINO)-3-CYANO-7-(TETRAHYDROFURAN-3-YL-OXY)QUINOLIN-6-YL)-4-(TERT-BUTYLAMINO)-BUT-2-ENAMIDE] | 7.2 nM | 6.8 nM | 5600 nM |  |  |
| CN(C)C/C=C/C(=O)Nc1cc2c(Nc3ccc(OCc4ccccc4F)c(Cl)c3)c(C#N)cnc2cc1OC1CCOC1 (stereo not shown) [Example 8, (E)-N-(4-(4-(2-FLUOROBENZYLOXY)-3-CHLOROPHENYLAMINO)-3-CYANO-7-(TETRAHYDROFURAN-3-YL-OXY)QUINOLIN-6-YL)-4-(DIMETHYLAMINO)-BUT-2-ENAMIDE] |  |  | 1700 nM | 1200 nM | 79% |
| C#Cc1cccc(Nc2c(C#N)cnc3cc(O[C@H]4CCOC4)c(NC(=O)/C=C/CN4CCOCC4)cc23)c1 [Example 145, (S,E)-N-(3-CYANO-4-(3-ETHYNYLPHENYLAMINO)-7-(TETRAHYDROFURAN-3-YL-OXY)QUINOLIN-6-YL)-4-(MORPHOLIN-4-YL)-BUT-2-ENAMIDE] | 654 nM | 831 nM |  |  | 75% |
| CN(C)C/C=C/C(=O)Nc1cc2c(Nc3ccc(OCc4ccccc4)c(Cl)c3)c(C#N)cnc2cc1OC1CCOC1 (stereo not shown) [Example 12, (E)-N-(4-(4-(BENZYLOXY)-3-CHLOROPHENYLAMINO)-3-CYANO-7-(TETRAHYDROFURAN-3-YL-OXY)QUINOLIN-6-YL)-4-(DIMETHYLAMINO)-BUT-2-ENAMIDE] | 8 nM |  | 2000 nM | 970 nM |  |
| CN(C)C/C=C/C(=O)Nc1cc2c(Nc3ccc(OCc4ccccn4)c(Cl)c3)c(C#N)cnc2cc1O[C@@H]1CCOC1 [Example 139, (R,E)-N-(4-(3-CHLORO-4-(PYRIDIN-2-YL-METHOXY)PHENYLAMINO)-3-CYANO-7-(TETRAHYDROFURAN-3-YL-OXY)QUINOLIN-6-YL)-4-(DIMETHYLAMINO)-BUT-2-ENAMIDE] | 3.9 nM | 5.2 nM | 2200 nM |  | 81% |
| N#Cc1cnc2cc(O[C@H]3CCOC3)c(NC(=O)/C=C/CN3CCCCC3)cc2c1Nc1ccc(OCc2ccccn2)c(Cl)c1 [Example 151, (S,E)-N-(4-(3-CHLORO-4-(PYRIDIN-2-YL-METHOXY)PHENYLAMINO)-3-CYANO-7-(TETRAHYDROFURAN-3-YL-OXY)QUINOLIN-6-YL)-4-(PIPERIDIN-1-YL)-BUT-2-ENAMIDE] | 6.5 nM | 17 nM | 1900 nM |  | 80% |
| C#Cc1cccc(Nc2c(C#N)cnc3cc(O[C@H]4CCOC4)c(NC(=O)/C=C/CN(C)Cc4ccccc4)cc23)c1 [Example 149, (S,E)-N-(3-CYANO-4-(3-ETHYNYLPHENYLAMINO)-7-(TETRAHYDROFURAN-3-YL-OXY)QUINOLIN-6-YL)-4-(N-METHYLBENZYLAMINO)-BUT-2-ENAMIDE] | 212 nM | 644 nM | 2300 nM |  | 79% |
| N#Cc1cnc2cc(O[C@H]3CCOC3)c(NC(=O)/C=C/CN3CCOCC3)cc2c1Nc1ccc(OCc2ccccn2)c(Cl)c1 [Example 152, (S,E)-N-(4-(3-CHLORO-4-(PYRIDIN-2-YL-METHOXY)PHENYLAMINO)-3-CYANO-7-(TETRAHYDROFURAN-3-YL-OXY)QUINOLIN-6-YL)-4-(MORPHOLIN-4-YL)-BUT-2-ENAMIDE] | 10.4 nM | 19 nM | 6600 nM |  | 78% |
| CN(C)C/C=C/C(=O)Nc1cc2c(Nc3ccc(OCc4cccc(C#N)c4)c(Cl)c3)c(C#N)cnc2cc1OC1CCOC1 (stereo not shown) [Example 15, (E)-N-(4-(4-(3-CYANOBENZYLOXY)-3-CHLOROPHENYLAMINO)-3-CYANO-7-(TETRAHYDROFURAN-3-YL-OXY)QUINOLIN-6-YL)-4-(DIMETHYLAMINO)-BUT-2-ENAMIDE] | 8.1 nM |  | 2200 nM | 1400 nM | 71% |
| C#Cc1cccc(Nc2c(C#N)cnc3cc(O[C@H]4CCOC4)c(NC(=O)/C=C/CN(CC)CC)cc23)c1 [Example 143, (S,E)-N-(3-CYANO-4-(3-ETHYNYLPHENYLAMINO)-7-(TETRAHYDROFURAN-3-YL-OXY)QUINOLIN-6-YL)-4-(DIETHYLAMINO)-BUT-2-ENAMIDE] | 149 nM | 231 nM | 7500 nM |  | 87% |
| CN(C)C/C=C/C(=O)Nc1cc2c(Nc3ccc(OCc4ccccc4C#N)c(Cl)c3)c(C#N)cnc2cc1OC1CCOC1 (stereo not shown) [Example 13, (E)-N-(4-(4-(2-CYANOBENZYLOXY)-3-CHLOROPHENYLAMINO)-3-CYANO-7-(TETRAHYDROFURAN-3-YL-OXY)QUINOLIN-6-YL)-4-(DIMETHYLAMINO)-BUT-2-ENAMIDE] | 11 nM |  | 2000 nM | 1800 nM | 75% |
| CN(C)C/C=C/C(=O)Nc1cc2c(Nc3ccc(OCc4cccc(Cl)c4)c(Cl)c3)c(C#N)cnc2cc1OC1CCOC1 (stereo not shown) [Example 11, (E)-N-(4-(4-(3-CHLOROBENZYLOXY)-3-CHLOROPHENYLAMINO)-3-CYANO-7-(TETRAHYDROFURAN-3-YL-OXY)QUINOLIN-6-YL)-4-(DIMETHYLAMINO)-BUT-2-ENAMIDE] | 7.9 nM |  | 1600 nM | 1500 nM |  |
| CCN(CC)C/C=C/C(=O)Nc1cc2c(Nc3ccc(OCc4ccccn4)c(Cl)c3)c(C#N)cnc2cc1O[C@H]1CCOC1 [Example 150, (S,E)-N-(4-(3-CHLORO-4-(PYRIDIN-2-YL-METHOXY)PHENYLAMINO)-3-CYANO-7-(TETRAHYDROFURAN-3-YL-OXY)QUINOLIN-6-YL)-4-(DIETHYLAMINO)-BUT-2-ENAMIDE] | 4.9 nM | 11 nM | 2200 nM |  | 82% |
| C#Cc1cccc(Nc2c(C#N)cnc3cc(O[C@H]4CCOC4)c(NC(=O)/C=C/CNC(C)(C)C)cc23)c1 [Example 146, (S,E)-N-(3-CYANO-4-(3-ETHYNYLPHENYLAMINO)-7-(TETRAHYDROFURAN-3-YL-OXY)QUINOLIN-6-YL)-4-(TERT-BUTYLAIMINO)-BUT-2-ENAMIDE] | 236 nM | 823 nM |  |  |  |
| C#Cc1cccc(Nc2c(C#N)cnc3cc(O[C@H]4CCOC4)c(NC(=O)/C=C/CN4CCCCC4)cc23)c1 [Example 144, (S,E)-N-(3-CYANO-4-(3-ETHYNYLPHENYLAMINO)-7-(TETRAHYDROFURAN-3-YL-OXY)QUINOLIN-6-YL)-4-(PIPERIDIN-1-YL)-BUT-2-ENAMIDE] | 129 nM | 202 nM | 3300 nM |  |  |
